Legend:
human CB2 receptors = target: T1, human CB2 receptors (Homo sapiens, UniProt P34972); experiment: Competition binding, CHO-hCB2 membranes; conditions: membranes from CHO cells stably expressing human CB2
T1 construct: expressed in transfected cells
Experimental: The assay was performed as previously detailed. […] All binding reactions were conducted in triplicate, in a final volume of 1 mL, and, following mixing, were incubated for 20 min in a 37 °C water bath to achieve equilibrium. After incubation, reactions were terminated by rapid vacuum filtration and processed for radioactivity, as detailed in Section 4.5.1.
Curve-fitting and all statistical analyses were performed using GraphPad Prism® v8.0g (GraphPad Software, Inc.; San Diego, CA, USA). […] For CBR screening studies, a one-sample t-test was performed to determine differences from 100% (e.g., to quantify compounds producing displacement), followed by a one-way ANOVA and Tukey’s post hoc tests to compare displacement produced by all drugs. […] To compare specific CBR affinity (Ki) between ligands, non-linear regression analysis was employed to determine experimental IC50 values from competition receptor binding assays, which were then converted to Ki values using the Cheng–Prusoff equation [35]. […] For LDH release, ATP-dependent cell viability and JC-1 staining assays, drug effects were first analyzed by a one-sample t-test to determine differences from 0 or 100% (vehicle), followed by a one-way ANOVA and Dunnett’s post hoc test to compare all means. […]

[1] = test system: canonical human CB1Rs (CHO-hCB1); set-up: method as in PMID 34592231; conditions: 1 μM ligand, 1 nM radioligand, CHO-hCB1 membranes; cited from earlier work
[2] = test system: CBRs expressed in HeLa cells; experiment: [^3H]WIN-55,212-2 competitive binding screen, HeLa membranes; set-up: species or system human; conditions: 1 μM ligand, 1 nM radioligand
Experimental: (§1) The assay was conducted as previously detailed. […] All binding reactions were conducted in triplicate, in a final volume of 1 mL, and, following mixing, were incubated for 20 min in a 37 °C water bath to achieve equilibrium. After incubation, reactions were terminated by rapid vacuum filtration through Whatman GF/B glass fiber filters (Brandel; Gaithersburg, MD, USA), followed by three washes of 4 mls of ice-cold filtration buffer (50 mM Tris, pH 7.4, and 0.05% bovine serum albumin). Samples were punched out from filter papers into scintillation vials, to which 4 mls of ScintiverseTM-BDR cocktail scintillation fluid (Fisher Scientific; Hampton, NH, USA) was added. Filters were incubated at room temperature for 24 h in scintillation fluid, vortexed, and radioactivity (measured as DPMs) was quantified via a liquid scintillation spectrophotometer (Tri Carb 2100 TR Liquid Scintillation Analyzer, Packard Instruments, Meriden, CT, USA).

[3] = target: non-canonical CBRs expressed in PC-12; experiment: Homologous receptor binding, PC-12; set-up: species or system rat; conditions: homologous competition with [^3H]WIN-55,212-2 (1 nM), read-out: affinity (KD)
Experimental: (§2) All binding reactions were conducted in triplicate, in a final volume of 1 mL, and, following mixing, were incubated for 20 min in a 37 °C water bath to achieve equilibrium. After incubation, reactions were terminated by rapid vacuum filtration and processed for radioactivity, as detailed in Section 4.5.1.
(§3) Curve-fitting and all statistical analyses were performed using GraphPad Prism® v8.0g (GraphPad Software, Inc.; San Diego, CA, USA). For qRT-PCR experiments, a one-way ANOVA, followed by Dunnett’s test as a post hoc test was utilized to compare fold change of PC-3 and DU-145 cancer cells to an arbitrary value of 1, set to the amount of mRNA transcribed from a human normal prostate control. For CBR screening studies, a one-sample t-test was performed to determine differences from 100% (e.g., to quantify compounds producing displacement), followed by a one-way ANOVA and Tukey’s post hoc tests to compare displacement produced by all drugs. […] For LDH release, ATP-dependent cell viability and JC-1 staining assays, drug effects were first analyzed by a one-sample t-test to determine differences from 0 or 100% (vehicle), followed by a one-way ANOVA and Dunnett’s post hoc test to compare all means. […]

[4] = test system: canonical human CB2Rs (CHO-hCB2); set-up: method as in PMID 34592231; conditions: 1 μM ligand, 1 nM radioligand, CHO-hCB2 membranes; cited from earlier work
[5] = test system: canonical human CB2Rs (CHO-hCB2); set-up: method as in PMID 34592231; conditions: 1 μM ligand, 0.2 nM radioligand, CHO-hCB2 membranes; cited from earlier work
[6] = target: non-canonical CBRs expressed in PC-3; experiment: Homologous receptor binding, PC-3; set-up: species or system human; conditions: homologous competition with [^3H]WIN-55,212-2 (1 nM), read-out: affinity (KD)
Experimental: as §2, §3

[7] = test system: CBRs expressed in HeLa cells; experiment: [^3H]CP-55,940 competitive binding screen, HeLa membranes; set-up: species or system human; conditions: 1 μM ligand, 0.2 nM radioligand
Experimental: as §1

T1 sequence (P34972 whole entry): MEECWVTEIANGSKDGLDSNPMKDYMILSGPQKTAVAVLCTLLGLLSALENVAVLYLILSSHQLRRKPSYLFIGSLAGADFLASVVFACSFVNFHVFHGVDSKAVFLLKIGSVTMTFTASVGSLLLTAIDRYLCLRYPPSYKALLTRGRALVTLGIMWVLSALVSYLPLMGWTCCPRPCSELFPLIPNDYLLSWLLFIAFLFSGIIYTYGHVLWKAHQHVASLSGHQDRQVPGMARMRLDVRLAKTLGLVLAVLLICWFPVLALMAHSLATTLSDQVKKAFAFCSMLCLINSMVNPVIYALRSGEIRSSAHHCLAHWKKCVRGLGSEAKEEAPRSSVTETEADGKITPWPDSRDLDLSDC

COc1ccc2c(c1)c(CCN1CCOCC1)c(C)n2C(=O)c1cccc(Cl)c1Cl [GW-405833]
Ki (human CB2 receptors): 51 nM

Cc1c(C(=O)c2cccc3ccccc23)c2cccc3c2n1[C@H](CN1CCOCC1)CO3 [WIN-55,212-2]
displacement of [^3H]WIN-55,212-2 (Figure 1B) [1]: produced near or complete displacement
displacement of [^3H]WIN-55,212-2 (Figure 1B) [2]: significantly displaced
Kd [3]: 12.6 ± 2.7 nM
displacement of [^3H]WIN-55,212-2 (Figure 1B) [4]: produced near or complete displacement
displacement of [^3H]CP-55,940 [5]: produced near or complete displacement
Kd [6]: 8.4 ± 2.1 nM
displacement of [^3H]CP-55,940 [7]: neither the non-selective CBR ligand CP-55,940 nor WIN-55,212-2 produced significant displacement

From paper PMC8954350, “Non-Canonical Cannabinoid Receptors with Distinct Binding and Signaling Properties in Prostate and Other Cancer Cell Types Mediate Cell Death” (International Journal of Molecular Sciences, 2022)
